According to patent publication US6300499A, “α1-adrenergic receptor antagonists” (Societe de Conseils de Recherches et d'Applications …, priority 1998, dated 2001):

Columns and labels:
α1-adrenergic receptor = assay: Test of the bond to the α1-adrenergic receptor (inhibition of [3H]prazosin bond to rat cerebral cortex); type: binding, rat (male Sprague Dawley); conditions: [3H]prazosin 0.2 nM, rat cerebral cortex membranes, 30 min, 25° C., pH 7.7
Description: The cerebral cortices of male Sprague Dawley rats are homogenized at 4° C. in Tris-HCl 50 mM pH=7.7 and centrifuged at 50,000 g for 30 minutes at 4° C. The pellets are again suspended in the same buffer and centrifuged again at 50,000 g for 30 minutes at 4° C.
The filters are rinsed three times with the same buffer at 0-4° C. and their radioactivity is tested by liquid scintillation spectrometry.
The specific bonds are obtained by subtracting the non-specific bonds (determined in the presence of 10 μM of phentolamine (Sigma Chemical Co. St. Louis Mo.)) from the total bonds. The data relative to the bonds is analyzed by computer assisted iterative non-linear regression analysis, using the Ligand program (Munson, P. J., Rodbard, D. Anal. Biochem. 107:220 (1980)).

prostatic urethrae = assay: Urethra Contraction Test (inhibition of phenylephrine contraction of prostatic urethra); design: species or system rabbit (male New Zealand); conditions: inhibition of contraction of rabbit prostatic urethra, agonist phenylephrine, compound 30 min before
Description: The urethrae are removed from male New Zealand rabibits, and cleaned of the surrounding connective tissues. Bands of prostatic urethrae (3 mm wide, 10-15 mm long) are suspended (1 g tension) in organ baths containing 10 ml of physiological solution (pH 7.4) at 37° C. under an atmosphere of 95% O2 /5% CO2; NaCl (118 mM); KCl (4.7 mM); CaCl2 (2.5 mM); KH2 PO4 (1.2 mM); MgSO4 (1.2 mM); NaHCO3 (25 mM); glucose (11 mM). The contractile responses are measured using force displacement transducers coupled to a Gould 8000S polygraph. A one hour period of equilibration or equalization is provided before the experiment. After equalization, the preparations are sensitized by a submaximal concentration of phenylephrine. Forty five minutes after the sensitization, a concentration-effect curve for the phenylephrine is established. In order to determine the effect of the test compounds, different preparations originating from the same animal are used in parallel. One preparation serves as a control whilst the others receive a concentration of a test compound introduced into the bath 30 minutes before the phenylephrine (Auguet, M. et al. European J. Pharmacol. 217:153 (1995)).
The dissociation constants (Kb) of the test compounds are determined using the following equation: Kb =[B]/(dose ratio--1); in which [B] is the concentration of test compound and (dose ratio) is the EC50 of phenylephrine in the presence of the test compound divided by the EC50 of the control preparation. These resultats are then expressed as the negative logarithm of Kb. The values of the EC50 are calculated from the maximum contractile response to the phenylephrine by computer analysis using a linear regression over the average tension values. The maximum contractile response of each preparation which was subjected to the test compound is determined by comparing the response provoked by the application of the sensitizing concentration of phenylephrine with the response provoked in the control preparation (which has not received the test compounds).

aorta of the rat = assay: Test of the contraction of the aorta of the rat (phenylephrine); design: species or system rat (male Sprague Dawley); conditions: agonist phenylephrine, compound 60 min before
Description: (§1) The aorta and the portal vein are extracted from male Sprague Dawley rats (275-350 g, Charles River, France) after cervical dislocation and cleaned of the surrounding connective tissues. […] The contractile responses are measured using force displacement transducers either coupled to a Gould […] polygraph or connected to a data retrieval system ([…], France). A one hour period of equilibration or equalization is provided before the experiment. […] Seventy five minutes, after the sensitization, a concentration-effect curve for the phenylephrine is established. In order to determine the effect of the test compounds, different preparations are used in parallel. One preparation serves as a control whilst the others receive different test compounds introduced into the bath 60 minutes before the aministration of the phenylephrine. The results are expressed as averages ±S.E.M. or percentage of contraction. […] The EC50 values are calculated from the maximum contractile response by computer analysis using a linear regression over the average tension values.

portal vein of the rat = assay: Test of the contraction of the portal vein of the rat (phenylephrine); design: species or system rat (male Sprague Dawley)
Description: as §1

aorta of the rabbit = assay: Test of the contraction of the aorta of the rabbit (phenylephrine); design: species or system rabbit (male New Zealand); conditions: agonist phenylephrine, compound 60 min before
Description: (§2) The aorta and the portal vein are extracted from male New-Zealand rabbits (2.5-3.5 kg, Dombes Romans, France) after cervical dislocation and cleaned of the surrounding connective tissues. […] The contractile responses are measured using force displacement transducers coupled to a Gould RS3400 polygraph. A one hour period of equilibration or equalization is provided before the experiment. […] When the contraction provoked by the phenylephrine is stabilized, carbachol (10 μM) is administered with the aim of controlling the disorganisation of the endothelium in the vessels. Seventy five minutes after the sensitization, a concentration-effect curve for the phenylephrine is established. In order to determine the effect of the test compounds, different preparations are used in parallel. One preparation serves as a control whilst the others receive different concentrations of test compounds introduced into the bath 60 minutes before the phenylephrine. The results are expressed as averages ±S.E.M. or percentage of contraction. […] The EC50 values are calculated from the maximum contractile response by computer analysis using a linear regression over the average tension values.

[1] = test system: portal vein of the rabbit; assay: Test of the contraction of the portal vein of the rabbit (phenylephrine); design: species or system rabbit (male New Zealand)
Description: as §2

[2] = test system: saphenous vein of the rabbit; assay: Test of the contraction of the saphenous vein of the rabbit (phenylephrine); design: species or system rabbit (male New Zealand)
Description: The contractile responses are measured using force displacement transducers coupled to a Gould RS3400 polygraph. […] A one hour period of equilibration or equalization is provided before the experiment. During this equalization period, the tension of the venous rings is left to relax and the final tension is maintained at 0.5 g. After equalization, the preparations are sensitized by a submaximal concentration (3 μM) of phenylephrine. When the contraction triggered by the phenylephrine is stabilized, carbachol (10 μM) is administered in order to control the disorganisation of the endothelium in the vessels. Seventy five minutes after the sensitization, a concentration-effect curve for the phenylephrine is established. In order to determine the effect of the test compounds, different preparations are used in parallel. One preparation serves as a control whilst the others receive different test compounds introduced into the bath 60 minutes before the administration of the phenylephrine The results are expressed as averages ±S.E.M. or percentage of contraction. […] The EC50 values are calculated from the maximum contractile response by computer analysis using a linear regression over the average tension values.

For Cc1ccc(C)c(N2CCN(CCCNC(=O)[C@@](C)(O)c3ccccc3)CC2)c1 [Compound 45, S-(+)-N-[3-{4-(2,5-dimethylphenyl)-1-piperazinyl}-propyl]-α-hydroxy-α-methyl-benzeneacetamide], the Ki (α1-adrenergic receptor) was 13 nM, the “-log Kb” value (prostatic urethrae) was 8.3 and the Kb (aorta of the rat) was 45 nM. For the same molecule, the Kb (portal vein of the rat; rat portal vein, agonist phenylephrine, compound 60 min before) was 1.4 nM, the “Selectivity Kb (Aorta)/Kb (Vein)” value (portal vein of the rat; rat, aorta / portal vein) was 32 and the Kb (aorta of the rabbit) was 63 nM. The Kb ([1]; rabbit portal vein, agonist phenylephrine, compound 60 min before) was 1.6 nM, the “Selectivity Kb (Aorta)/Kb (Vein)” value ([1]; rabbit, aorta / portal vein) was 40 and the Kb ([2]; rabbit saphenous vein, agonist phenylephrine, compound 60 min before) was 15 nM. The “Selectivity Kb (Salphenous vein)/Kb (Portal vein)” value ([2]; rabbit, saphenous vein / portal vein) was 8.4.
